US10398783B2, “Antiproliferative compounds and conjugates made therefrom” (BRISTOL-MYERS SQUIBB COMPANY, priority 2016, dated 2019)

Columns and labels:
Type in all cases: cell-based, human
[1] = system: mesothelioma (H226) cancer cell line; assay: 72 hr ATP luminescence cell proliferation inhibition assay, H226
Experimental: (§1) Proliferation inhibition was measured using a 72 hr ATP luminescence assay (Cheng et al., U.S. Pat. No. 8,394,922 B2 (2013)). The antiproliferative effects are reported as IC50's, i.e., the concentration of compound that produces a 50% inhibitory effect on cell proliferation.

[2] = system: gastric (stomach) cancer (N87) cell line; assay: 72 hr ATP luminescence cell proliferation inhibition assay, N87; details: N87 cells
Experimental: as §1

[3] = system: colon cancer (HCT116) cell line; assay: 72 hr ATP luminescence cell proliferation inhibition assay, HCT116
Experimental: as §1

[4] = system: ovarian cancer (OVCAR3) cell line; assay: 72 hr ATP luminescence cell proliferation inhibition assay, OVCAR3
Experimental: as §1

| SMILES | IC50 ([1]; H226 cells) | IC50 [2] | IC50 ([3]; HCT116 cells) | IC50 ([4]; OVCAR3 cells) | IC50 ([1]; Homo sapiens, NCI-H226, H226 cells) | IC50 ([2]; Homo sapiens) | IC50 ([3]; Homo sapiens, HCT-116, HCT116 cells) | IC50 ([4]; Homo sapiens, OVCAR-3, OVCAR3 cells) |
| --- | --- | --- | --- | --- | --- | --- | --- | --- |
| COc1cc2c(cc1OCCCC(=O)Nc1cc(C(=O)Nc3ccc(-n4cnc(C(F)F)c4)c(OC)c3)n(C)c1)N=C[C@@H]1Cc3ccccc3CN1C2=O [(Ib-18)] | 0.11 nM | 0.052 nM | 0.055 nM | 0.2 nM |  |  |  |  |
| COc1cc2c(cc1OCCCC(=O)Nc1cc(C(=O)Nc3ccc(-n4cnc(Cl)c4)c(OC)c3)n(C)c1)N=C[C@@H]1Cc3ccccc3CN1C2=O [(Ib-19)] | 0.11 nM | 0.045 nM | 0.038 nM | 0.23 nM |  |  |  |  |
| COc1cc2c(cc1OCCCC(=O)Nc1cc(C(=O)Nc3ccc(-n4cnc(C)c4)c(OC)c3)n(C)c1)N=C[C@@H]1Cc3ccccc3CN1C2=O [(Ib-21)] | 0.19 nM | 0.091 nM | 0.057 nM | 0.35 nM |  |  |  |  |
| COc1cc2c(cc1OCCCC(=O)Nc1cc(C(=O)Nc3ccc(-n4ccnc4)cc3)n(C)c1)N=C[C@@H]1Cc3ccccc3CN1C2=O [(Ib-22)] | 0.18 nM | 0.24 nM | 0.088 nM | 0.91 nM |  |  |  |  |
| COC(=O)c1nc(-c2ccc(NC(=O)c3cc(NC(=O)CCCOc4cc5c(cc4OC)C(=O)N4Cc6ccccc6C[C@H]4C=N5)cn3C)cc2)cn1C [(Ib-25)] | 0.15 nM | 0.084 nM | 0.057 nM | 0.35 nM |  |  |  |  |
| COc1cc2c(cc1OCCCC(=O)Nc1cc(C(=O)Nc3cc(C)c(-n4cncn4)c(C)c3)n(C)c1)N=C[C@@H]1Cc3ccccc3CN1C2=O [(Ib-28)] | 0.72 nM | 0.18 nM | 0.18 nM | 0.4 nM |  |  |  |  |
| COc1cc2c(cc1OCCCC(=O)Nc1cc(C(=O)Nc3ccc(-c4ncc[nH]4)cc3)n(C)c1)N=C[C@@H]1Cc3ccccc3CN1C2=O [(Ib-30)] | 0.66 nM | 0.37 nM | 0.1 nM | 0.76 nM |  |  |  |  |
| COc1cc2c(cc1OCCCC(=O)Nc1cc(C(=O)Nc3ccc4c(c3)OCc3nncn3-4)n(C)c1)N=C[C@@H]1Cc3ccccc3CN1C2=O [(Ib-31)] | 0.28 nM | 0.23 nM | 0.078 nM | 0.94 nM |  |  |  |  |
| COc1cc2c(cc1OCCCC(=O)Nc1cc(C(=O)Nc3ccc4c(c3)-n3cnnc3CO4)n(C)c1)N=C[C@@H]1Cc3ccccc3CN1C2=O [(Ib-32)] | 3.1 nM | 0.41 nM | 0.3 nM | 1.6 nM |  |  |  |  |
| COc1cc2c(cc1OCCCC(=O)Nc1cc(C(=O)Nc3cccc(OCc4ccccc4)n3)n(C)c1)N=C[C@@H]1Cc3ccccc3CN1C2=O [(Ib-36)] | 22 nM | 3.7 nM | 3.7 nM | 2.2 nM |  |  |  |  |
| COc1cc2c(cc1OCCCC(=O)Nc1cc(C(=O)Nc3cnc4c(c3)ncn4C)n(C)c1)N=C[C@@H]1Cc3ccccc3CN1C2=O [(Ib-37)] | 1.2 nM | 1.6 nM | 1.7 nM | 5.2 nM |  |  |  |  |
| COC(=O)c1cc(NC(=O)CCCOc2cc3c(cc2OC)C(=O)N2Cc4ccccc4C[C@H]2C=N3)cn1C [(Ib-38)] | 1.1 nM | 1.1 nM | 1.1 nM | 0.66 nM |  |  |  |  |
| COc1cc2c(cc1OCCCC(=O)Nc1cc(C(=O)NC3CC3)n(C)c1)N=C[C@@H]1Cc3ccccc3CN1C2=O [(Ib-42)] | 0.49 nM | 0.39 nM | 0.38 nM | 0.32 nM |  |  |  |  |
| COc1cc2c(cc1OCCCC(=O)Nc1cc(C(=O)Nc3cccnc3)n(C)c1)N=C[C@@H]1Cc3ccccc3CN1C2=O [(Ib-46)] | 0.27 nM | 0.12 nM | 0.13 nM | 0.55 nM |  |  |  |  |
| COc1cc2c(cc1OCCCC(=O)Nc1cc(C(=O)Nc3ccc(Cl)nc3)n(C)c1)N=C[C@@H]1Cc3ccccc3CN1C2=O [(Ib-47)] | 0.13 nM | 0.022 nM | 0.019 nM | 0.13 nM |  |  |  |  |
| COc1cc2c(cc1OCCCC(=O)Nc1cn(C)c(C(=O)Nc3ccccc3)n1)N=C[C@@H]1Cc3ccccc3CN1C2=O [(Ib-48)] | 0.18 nM | 0.075 nM | 0.039 nM | 0.094 nM |  |  |  |  |
| COc1cc2c(cc1OCCCC(=O)Nc1cc(C(=O)Nc3ccc(-c4cc(-c5ncco5)n(C)c4)cc3)n(C)c1)N=C[C@@H]1Cc3ccccc3CN1C2=O [(Ib-49)] | 0.062 nM | 0.16 nM | 0.051 nM | 0.32 nM |  |  |  |  |
| COc1cc2c(cc1OCCCC(=O)Nc1cc(C(=O)Nc3ccc(OCc4ccccc4)cc3)n(C)c1)N=C[C@@H]1Cc3ccccc3CN1C2=O [(Ib-51)] | 0.11 nM | 0.037 nM | 0.022 nM | 0.7 nM |  |  |  |  |
| COc1cc2c(cc1OCCCC(=O)Nc1cc(C(=O)Nc3ccc(N)cc3)n(C)c1)N=C[C@@H]1Cc3ccccc3CN1C2=O [(Ib-52)] | 0.3 nM | 0.45 nM | 0.28 nM | 0.63 nM |  |  |  |  |
| COc1cc(-c2ccc(NC(=O)c3cc(NC(=O)CCCOc4cc5c(cc4OC)C(=O)N4Cc6ccccc6C[C@H]4C=N5)cn3C)c(OC)c2)ccc1N [(Ib-53)] | 0.13 nM | 0.092 nM | 0.098 nM | 0.22 nM |  |  |  |  |
| COc1cc2c(cc1OCCCC(=O)Nc1cc(C(=O)Nc3ccc(-c4ccc(N)cc4)cc3)n(C)c1)N=C[C@@H]1Cc3ccccc3CN1C2=O [(Ib-54)] |  |  |  |  | 0.05 nM | 0.027 nM | 0.007 nM | 0.071 nM |

Second part, led by results:

| IC50 ([1]; H226 cells) | IC50 [2] | IC50 ([3]; HCT116 cells) | IC50 ([4]; OVCAR3 cells) | SMILES | IC50 ([1]; Homo sapiens, NCI-H226, H226 cells) | IC50 ([2]; Homo sapiens) | IC50 ([3]; Homo sapiens, HCT-116, HCT116 cells) | IC50 ([4]; Homo sapiens, OVCAR-3, OVCAR3 cells) |
| --- | --- | --- | --- | --- | --- | --- | --- | --- |
| < 0.004 nM | 0.009 nM | 0.011 nM | 0.028 nM | COc1cc2c(cc1OCCCC(=O)Nc1cc(C(=O)Nc3ccc(-n4cncn4)cc3)n(C)c1)N=C[C@@H]1Cc3ccccc3CN1C2=O [(Ib-17)] |  |  |  |  |
| 0.031 nM | 0.014 nM | 0.027 nM | 0.1 nM | COc1cc2c(cc1OCCCC(=O)Nc1cc(C(=O)Nc3ccc(-n4cnc(Cl)c4)c(F)c3)n(C)c1)N=C[C@@H]1Cc3ccccc3CN1C2=O [(Ib-20)] |  |  |  |  |
| 0.036 nM | 0.014 nM | 0.007 nM | 0.022 nM | COc1cc2c(cc1OCCCC(=O)Nc1cc(C(=O)Nc3ccc(-c4cocn4)cc3)n(C)c1)N=C[C@@H]1Cc3ccccc3CN1C2=O [(Ib-23)] |  |  |  |  |
| 0.053 nM | 0.074 nM | 0.008 nM | 0.16 nM | COc1cc2c(cc1OCCCC(=O)Nc1cc(C(=O)Nc3cnn(-c4ccccc4)c3)n(C)c1)N=C[C@@H]1Cc3ccccc3CN1C2=O [(Ib-24)] |  |  |  |  |
| < 0.004 nM | < 0.004 nM | 0.025 nM | 0.44 nM | COc1cc2c(cc1OCCCC(=O)Nc1cc(C(=O)Nc3ccc(-n4cnc(C)n4)c(O)c3)n(C)c1)N=C[C@@H]1Cc3ccccc3CN1C2=O [(Ib-26)] |  |  |  |  |
| 0.067 nM | 0.021 nM | 0.02 nM | 0.15 nM | C=CCOc1cc(NC(=O)c2cc(NC(=O)CCCOc3cc4c(cc3OC)C(=O)N3Cc5ccccc5C[C@H]3C=N4)cn2C)ccc1-n1cnc(C)n1 [(Ib-27)] |  |  |  |  |
| 0.1 nM | 0.042 nM | 0.041 nM | 0.16 nM | COc1cc2c(cc1OCCCC(=O)Nc1cc(C(=O)Nc3ccc(-n4cncn4)c(OC)c3)n(C)c1)N=C[C@@H]1Cc3ccccc3CN1C2=O [(Ib-29)] |  |  |  |  |
| < 0.004 nM | < 0.004 nM | < 0.004 nM | 0.052 nM | COc1cc2c(cc1OCCCC(=O)Nc1cc(C(=O)Nc3ccc4c(c3)oc3ccccc34)n(C)c1)N=C[C@@H]1Cc3ccccc3CN1C2=O [(Ib-33)] |  |  |  |  |
| < 0.004 nM | 0.006 nM | < 0.004 nM | 0.025 nM | COc1cc2c(cc1OCCCC(=O)Nc1cc(C(=O)Nc3ccc4c(c3)Cc3cc(N)ccc3-4)n(C)c1)N=C[C@@H]1Cc3ccccc3CN1C2=O [(Ib-34)] |  |  |  |  |
| < 0.004 nM | < 0.004 nM | 0.047 nM | 0.11 nM | COc1ccc(NC(=O)c2cc(NC(=O)CCCOc3cc4c(cc3OC)C(=O)N3Cc5ccccc5C[C@H]3C=N4)cn2C)nc1 [(Ib-35)] |  |  |  |  |
| 0.006 nM | 0.002 nM | 0.003 nM | 0.011 nM | COC(=O)c1cc(-c2ccc(NC(=O)c3cc(NC(=O)CCCOc4cc5c(cc4OC)C(=O)N4Cc6ccccc6C[C@H]4C=N5)cn3C)cc2)cn1C [(Ib-39)] |  |  |  |  |
| 0.1 nM | 0.09 nM | 0.028 nM | 0.16 nM | COC(=O)c1cc(NC(=O)c2cc(NC(=O)CCCOc3cc4c(cc3OC)C(=O)N3Cc5ccccc5C[C@H]3C=N4)cn2C)cn1C [(Ib-40)] |  |  |  |  |
| 0.083 nM | 0.038 nM | 0.022 nM | 0.053 nM | COc1cc2c(cc1OCCCC(=O)Nc1cc(C(=O)Nc3ccccc3)n(C)c1)N=C[C@@H]1Cc3ccccc3CN1C2=O [(Ib-41)] |  |  |  |  |
| 0.013 nM | 0.026 nM | 0.008 nM | 0.025 nM | COc1cc2c(cc1OCCCC(=O)Nc1cc(C(=O)Nc3ccc(-c4ccccc4)cc3)n(C)c1)N=C[C@@H]1Cc3ccccc3CN1C2=O [(Ib-43)] |  |  |  |  |
| 0.085 nM | 0.055 nM | 0.045 nM | 0.053 nM | COc1cc2c(cc1OCCCC(=O)Nc1cc(C(=O)Nc3ccccn3)n(C)c1)N=C[C@@H]1Cc3ccccc3CN1C2=O [(Ib-44)] |  |  |  |  |
| 0.085 nM | 0.025 nM | 0.032 nM | 0.01 nM | COc1cc2c(cc1OCCCC(=O)Nc1cc(C(=O)Nc3ccc(Cl)cn3)n(C)c1)N=C[C@@H]1Cc3ccccc3CN1C2=O [(Ib-45)] |  |  |  |  |
| 0.018 nM | < 0.004 nM | 0.004 nM | 0.045 nM | COC(=O)c1cc(-c2ccc(NC(=O)c3nc(NC(=O)CCCOc4cc5c(cc4OC)C(=O)N4Cc6ccccc6C[C@H]4C=N5)cn3C)cc2)cn1C [(Ib-55)] |  |  |  |  |
